Laboratory results: US20150164968A1, “Method of Producing Banana-Derived Composition and Biologically Active Substance Containing Same” (priority 2013, published 2015)

Assay: Action of antioxidation, OXY Adsorbent Test (FREE)
Settings: solution at 10 mg/ml in ultrapure water
Method: The banana-derived composition 4 (the secondary refined product) as the biologically active substance and vitamin C were dissolved in ultrapure water to prepare solutions each at a concentration of 10 mg/ml. An antioxidation ability was measured twice for each of the prepared solutions. In detail, the antioxidation ability against oxidation through hypochlorous acid (HClO) was measured by means of Free Radical Elective Evaluator (FREE) manufactured by […] Co., Ltd. Oxygen (OXY) Adsorbent Test was applied to the measurement. As a result of the measurement, a concentration of HClO neutralized is obtained in the unit of μmol HClO/mL. A higher concentration value means a better HClO neutralization ability, that is to say, a stronger antioxidative action.

Structure (SMILES): O=C1O[C@H]([C@@H](O)CO)C(O)=C1O [Vitamin C, vitamin C]
- concentration of HClO neutralized, 1st measurement: 71.7 μmol HClO/mL
- concentration of HClO neutralized, 2nd measurement: 79.7 μmol HClO/mL
- concentration of HClO neutralized, Average (average of two measurements): 75.7 μmol HClO/mL
